In test [1] the target is T1, SpyGapDH (Streptococcus pyogenes, UniProt P0C0G7).
T1 sequence (P0C0G7 2-336): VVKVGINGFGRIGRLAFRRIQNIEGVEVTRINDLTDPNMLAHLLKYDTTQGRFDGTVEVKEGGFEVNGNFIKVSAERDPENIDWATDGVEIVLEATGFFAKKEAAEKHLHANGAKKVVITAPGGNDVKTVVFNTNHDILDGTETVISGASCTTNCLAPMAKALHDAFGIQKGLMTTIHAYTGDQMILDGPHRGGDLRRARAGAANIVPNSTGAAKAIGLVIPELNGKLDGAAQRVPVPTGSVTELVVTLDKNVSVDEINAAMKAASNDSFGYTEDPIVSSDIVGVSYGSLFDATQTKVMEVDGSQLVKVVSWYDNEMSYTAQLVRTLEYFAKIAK
The test is described as follows: NADH formation at […] nm. The following applies: 10 mM NAD+, 10 mM phosphate, 200 mM Tricine pH 8.5. The class given is biochemical.

Test [2] has as its target T2, SpyGapN (Streptococcus pyogenes, UniProt Q99Z67).
T2 sequence (Q99Z67 1-475): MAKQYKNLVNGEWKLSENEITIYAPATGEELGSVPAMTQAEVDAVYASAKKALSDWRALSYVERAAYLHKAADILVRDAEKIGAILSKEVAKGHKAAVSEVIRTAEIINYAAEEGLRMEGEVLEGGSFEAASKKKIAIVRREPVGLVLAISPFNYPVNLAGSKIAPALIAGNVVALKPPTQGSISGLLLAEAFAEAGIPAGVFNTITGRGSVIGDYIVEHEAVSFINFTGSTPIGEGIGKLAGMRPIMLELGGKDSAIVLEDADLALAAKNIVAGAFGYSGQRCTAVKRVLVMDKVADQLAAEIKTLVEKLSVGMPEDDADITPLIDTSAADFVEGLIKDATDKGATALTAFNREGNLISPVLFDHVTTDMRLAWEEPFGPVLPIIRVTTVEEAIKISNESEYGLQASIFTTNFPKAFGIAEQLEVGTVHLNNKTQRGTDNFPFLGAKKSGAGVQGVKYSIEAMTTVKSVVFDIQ
The test is described as follows: NADPH formation at […] nm. Particulars: for inhibition at 40000 µM: read-out: % inhibition at 40 mM. The class given is biochemical.

Experimental findings from publication PMC12758328 (Virulence, 2025) are described below.

Turning to `O=CC(O)COP(=O)(O)O` (racemic) [DL-glyceraldehyde 3-phosphate], the “NADH formation at 340 nm” value in test [1] was “To measure the GapDH activity, the assay mixture contained”.
Regarding `Nc1cncnc1` [R65, Pyrimidine-5-amine], the inhibition (commonly the drop in the measured response relative to a control, in per cent) at 40000 µM in test [2] was roughly 42%.
Same read-out and setting: with `Oc1ccnnc1` [R76, 4-Hydroxypyridazine] the figure was roughly 16%.
For the molecule `O=S(=O)(O)C(O)C(O)S(=O)(=O)O` (centres unmarked) [compound 26, 1,2-dihydroxyethane-1,2-disulfonate], the inhibition at 8000 µM in test [2] (read-out: % inhibition at 8 mM) was roughly 50%.
For the molecule “(ethoxyoxydophosphanyl)formate [compound 32]”, the “% inhibition at 8 mM” value in test [2] (2 mM DL-G3P, 10 mM NADP+, 200 mM Tricine pH 8.5) is on record as ~ 25%.
